According to paper PMC3614957 (PLoS ONE, 2013):

Columns and labels:
human erythrocytes = assay: Membrane dipole potential assessed by di-8-ANEPPS, erythrocytes; type: cell-based; conditions: up to 6 µM
Description: (§1) Human blood samples were obtained from healthy volunteers, with their previous written informed consent, at the Instituto Português do Sangue (Lisbon, Portugal). This study was approved by the ethics committee of the Faculdade de Medicina da Universidade de Lisboa. Isolation of erythrocytes and PBMC and labeling of these cells with di-8-ANEPPS (Invitrogen, Carlsbad, CA, USA) were performed as described before, [29]. […] They were incubated at 1% hematocrit in buffer supplemented with 0.05% (m/v) Pluronic F-127 (Sigma) and di-8-ANEPPS 10 µM. PBMC were isolated by density gradient using Ficoll-Paque Plus (GE Healthcare, Little Chalfont, UK) and counted in a Neubauer improved hemocytometer. They were incubated at 3000 cells/µL in Pluronic-supplemented buffer with 3.3 µM di-8-ANEPPS. Cells were incubated with the fluorescent probe during 1 h, with gentle agitation, and unbound probe was washed with Pluronic-free buffer on two centrifugation cycles. […] For lipid vesicles labeling, suspensions with […] of total lipid were incubated overnight with di-8-ANEPPS 10 µM, to ensure maximum incorporation of the probe. The maximum concentration of DMSO or DMSO:ethanol in the suspensions was 2.4% (v/v) at 6 µM of peptide or cholesterol. […] The variation of R with the peptide concentration was analyzed by a single binding site model: [drawing 5] […]

PBMC = assay: Membrane dipole potential assessed by di-8-ANEPPS, PBMC; type: cell-based, human; conditions: up to 6 µM
Description: as §1

[1] = Membrane dipole potential assessed by di-8-ANEPPS, labeled lipid vesicles; type: physicochemical; conditions: di-8-ANEPPS labeled LUV, control additions (data not shown)
Description: as §1

[2] = design: method as in 2 sources, one per row (each row's own in cited_ref): ref 35 = [35]; PMID 14514352; doi:10.1042/BJ20031350; 35 Veiga S , Henriques S , Santos NC , Castanho MARB ( 2004 ) Putative role of membranes in the HIV fusion inhibitor enfuvirtide mode of action at the molecular level . Biochem J 377 : 107 – 110 . 145 ||| ref 8, 29 = [8]; PMID 18410103; doi:10.1021/ja711247n; 8 Franquelim HG , Loura LM , Santos NC , Castanho MARB ( 2008 ) Sifuvirtide screens rigid membrane surfaces. establishment of a correlation between efficacy and membrane domain selectivity among HIV f || [29]; PMID 21075080; doi:10.1016/j.bbrc.2010.11.013; 29 Matos PM , Freitas T , Castanho MARB , Santos NC ( 2010 ) The role of blood cell membrane lipids on the mode of action of HIV-1 fusion inhibitor sifuvirtide . Biochem Biophys Res Commun 403 : 270 –; conditions: cited from earlier work

| Compound | effect on membrane dipole potential (human erythrocytes) | effect on membrane dipole potential (PBMC) | changes on the dipole potential [1] | binding to POPC vesicles [2] |
| --- | --- | --- | --- | --- |
| CC(C)CCC[C@@H](C)[C@H]1CC[C@H]2[C@@H]3CC=C4C[C@@H](O)CC[C@]4(C)[C@H]3CC[C@]12C [cholesterol] | not sufficient to induce a detectable membrane potential change | not sufficient to induce a detectable membrane potential change | no changes |  |
| sifuvirtide |  |  |  | residual binding |
